Read-outs that look alike come from different tables or passages of the source.
Key:
[1] = system: Pseudomonas aeruginosa ATCC 27853; assay: AST QC assay on AD-1 instrument, QC isolate P. aeruginosa ATCC 27853; type: cell-based
Text: (§1) The reportable range for the AST QC assay in some examples are adjusted such that the selected QC isolates have an MIC that is within the reportable range of the QC Assay. These extended ranges are only applied to QC testing and are not applied to AST assessment of patient samples. The process for assigning an MIC value to the QC organisms is the same or similar to that used for patient samples. […] This approach allows testing of, for example, CLSI recommended QC isolates without affecting the algorithms that are optimized around antimicrobial breakpoints. The algorithms used in ID QC or AST QC testing include those described above, for example, when the QC test samples are microbial isolates. For ID QC testing utilizing target microbial nucleic acids coupled to a bead, positive detection is achieved by comparing the cumulative count in the target (e.g., Green fluorescence channel) only against a threshold of objects that have brightness exceeding bead autofluorescence. Negative control detection is achieved by doing the same for eubacteria (e.g., Red fluorescence) channel only. For example, the number of bright red objects should not exceed a threshold in order to pass negative control.
(§2) The results of the identification assay drive antibiotic selection for antimicrobial susceptibility testing. The remaining samples undergo a pre-growth step to normalize growth rates during the approximately 1-hour FISH ID assay. The concentration of organisms in the purified inoculum was determined by repeating the quantitation process with a universal nucleic acid stain as previously described herein. […] Following cell immobilization, antimicrobial solutions in Mueller-Hinton agar were dispensed into the flowcells. Different antimicrobials were tested in separate flowcells, and only a single concentration of each antimicrobial was used. A growth control consisting of Mueller-Hinton agar without any antimicrobial was included for each run. A dark-field microscope and camera produced time-lapse images approximately every 10 minutes of progenitor cells growing into clones of daughter cells in each flowcell. The agar ensured daughter cells were immobilized and remained localized to each growing clone. Resistant clones grew while susceptible clones arrest or lyse over time (FIG. 90).
(§3) Custom image analysis software assigned unique spatial XY coordinates to individual progenitor cells (FIG. 91), allowing each growing clone across a series of time-lapse images to be identified. The intensity of each clone can be used as a metric of clone mass in each image. By measuring over time, this metric was used to generate growth curves for each individual clone (FIG. 92). The pattern of cell responses was used to determine the susceptibility of the overall population. Computer algorithms developed for each organism-antimicrobial combination convert microbial growth response into an MIC value using a mathematical regression model based on the response of isolates with known MICs for a single-concentration of a given antimicrobial. Once obtained, MIC values were interpreted using FDA, CLSI or EUCAST breakpoints along with expert rules to determine the categorical result (susceptible (S), intermediate (I) or resistant (R)). In addition to MICs, this technique was applied to phenotypic resistance mechanism detection.
(§4) In this example, the AST QC consumable insert consisted of 8 wells configured in a “pi” shape, as shown in the dark gray shading in FIG. 109. The AST QC panel was composed of seven CLSI recommended isolates that provide “on-scale” MIC results for all of the antimicrobial agents included in a sample blood culture test. A C. albicans isolate was used for Quality Control assessment of the […] component of the AD-1 Instrument System.
(§5) Table 9 below lists each organism and the corresponding antimicrobial agent that was tested in the AST QC assay. […]

[2] = system: Pseudomonas aeruginosa ATCC 27853; conditions: cited from earlier work; for Organism QC Range (MIC): AST QC panel (Table 9), CLSI recommended isolate P. aeruginosa ATCC 27853; for Expected (MIC acceptance range): P. aeruginosa ATCC 27853
[3] = system: Enterococcus faecalis ATCC 29212; assay: AST QC assay on AD-1 instrument, QC isolate E. faecalis ATCC 29212; type: cell-based; conditions: unit assumed
Text: as §1, §2, §3, §4, §5

[4] = system: Enterococcus faecalis ATCC 29212; conditions: cited from earlier work; for Organism QC Range (MIC): AST QC panel (Table 9), CLSI recommended isolate E. faecalis ATCC 29212; for Expected (MIC acceptance range): E. faecalis ATCC 29212
[5] = system: Escherichia coli ATCC 25922; conditions: in µg/mL (unit assumed), cited from earlier work; for Organism QC Range (MIC): AST QC panel (Table 9), CLSI recommended isolate E. coli ATCC 25922; for Expected (MIC acceptance range): E. coli ATCC 25922
[6] = system: Escherichia coli ATCC 25922; assay: AST QC assay on AD-1 instrument, QC isolate E. coli ATCC 25922; type: cell-based; conditions: unit assumed
Text: as §1, §2, §3, §4, §5

[7] = AST only report (Table 10), in µg/mL (unit assumed)
[8] = ID and AST report (Table 11), in µg/mL (unit assumed)

Molecule | Result (MIC value) ([1]; AST only report (Table 10)) | Result (MIC value) ([1]; ID and AST report (Table 11)) | Organism QC Range (MIC) ([2]; in µg/mL (unit assumed)) | Expected (MIC acceptance range) [2, 7] | Expected (MIC acceptance range) [2, 8] | Result (MIC value) ([3]; AST only report (Table 10)) | other results
Gentamicin | 1 µg/mL | 1 µg/mL | 0.5-2 | – | – | – | Expected (MIC acceptance range) ([2]; AST only report (Table 10)): 0.5-2^; Expected (MIC acceptance range) ([2]; ID and AST report (Table 11)): 0.5-2^
C[C@@H](O)[C@H]1C(=O)N2C(C(=O)O)=C(S[C@@H]3CN[C@H](C(=O)Nc4cccc(C(=O)O)c4)C3)[C@H](C)[C@H]12 [Ertapenem] | 4 µg/mL | 4 µg/mL | 2-8 | 2-8 | 2-8 | – | –
C[C@H]1c2cccc(O)c2C(=O)C2=C(O)[C@]3(O)C(=O)C(C(N)=O)=C(O)[C@@H](N(C)C)[C@@H]3[C@@H](O)[C@@H]21 [Doxycycline] | – | – | – | – | – | 4 µg/mL | Result (MIC value) ([3]; ID and AST report (Table 11)): 4 µg/mL
CC1(C)S[C@@H]2[C@H](NC(=O)[C@H](N)c3ccccc3)C(=O)N2[C@H]1C(=O)O [Ampicillin] | – | – | – | – | – | 1 µg/mL | Organism QC Range (MIC) ([4]; in µg/mL (unit assumed)): 0.5-2; Expected (MIC acceptance range) ([4]; AST only report (Table 10)): 0.5-2^
Colistin | 2 µg/mL | 2 µg/mL | 0.5-4 | – | – | – | Expected (MIC acceptance range) ([2]; AST only report (Table 10)): 0.5-4^; Expected (MIC acceptance range) ([2]; ID and AST report (Table 11)): 0.5-4^
CO/N=C(\C(=O)N[C@@H]1C(=O)N2C(C(=O)O)=C(CSc3nc(=O)c(=O)[nH]n3C)CS[C@H]12)c1csc(N)n1 [Ceftriaxone] | – | – | – | – | – | – | Organism QC Range (MIC) [5]: 0.03-0.12; Expected (MIC acceptance range) ([5]; AST only report (Table 10)): 0.03-0.125; Expected (MIC acceptance range) ([5]; ID and AST report (Table 11)): 0.03-0.125; Result (MIC value) ([6]; AST only report (Table 10)): 0.0525 µg/mL; Result (MIC value) ([6]; ID and AST report (Table 11)): 0.0525 µg/mL
CCCCCCCCCC(=O)N[C@@H](Cc1c[nH]c2ccccc12)C(=O)N[C@H](CC(N)=O)C(=O)N[C@@H](CC(=O)O)C(=O)N[C@@H]1C(=O)NCC(=O)N[C@@H](CCCN)C(=O)N[C@@H](CC(=O)O)C(=O)N[C@H](C)C(=O)N[C@@H](CC(=O)O)C(=O)NCC(=O)N[C@H](CO)C(=O)N[C@@H]([C@H](C)CC(=O)O)C(=O)N[C@@H](CC(=O)c2ccccc2N)C(=O)O[C@@H]1C [Daptomycin] | – | – | – | – | – | 2 µg/mL | Organism QC Range (MIC) ([4]; in µg/mL (unit assumed)): 1-4; Expected (MIC acceptance range) [4, 7]: 1-4; Expected (MIC acceptance range) [4, 8]: 1-4; Result (MIC value) ([3]; ID and AST report (Table 11)): 2 µg/mL
Cc1nnc(SCC2=C(C(=O)O)N3C(=O)[C@@H](NC(=O)Cn4cnnn4)[C@H]3SC2)s1 [Cefazolin] | – | – | – | – | – | – | Organism QC Range (MIC) [5]: 1-4; Expected (MIC acceptance range) ([5]; AST only report (Table 10)): 1-4; Result (MIC value) ([6]; AST only report (Table 10)): 2 µg/mL
CN[C@H](CC(C)C)C(=O)N[C@H]1C(=O)N[C@@H](CC(N)=O)C(=O)N[C@H]2C(=O)N[C@H]3C(=O)N[C@H](C(=O)N[C@H](C(=O)O)c4cc(O)cc(O)c4-c4cc3ccc4O)[C@H](O)c3ccc(c(Cl)c3)Oc3cc2cc(c3O[C@@H]2O[C@H](CO)[C@@H](O)[C@H](O)[C@H]2O[C@H]2C[C@](C)(N)[C@H](O)[C@H](C)O2)Oc2ccc(cc2Cl)[C@H]1O [Vancomycin] | – | – | – | – | – | 2 µg/mL | Organism QC Range (MIC) ([4]; in µg/mL (unit assumed)): 0.5-2; Expected (MIC acceptance range) [4, 7]: 1-4; Expected (MIC acceptance range) [4, 8]: 1-4; Result (MIC value) ([3]; ID and AST report (Table 11)): 2 µg/mL
CN(C)c1ccc(O)c2c1C[C@H]1C[C@H]3[C@H](N(C)C)C(O)=C(C(N)=O)C(=O)[C@@]3(O)C(O)=C1C2=O [Minocycline] | – | – | – | – | – | – | Result (MIC value) ([6]; AST only report (Table 10)): 0.5 µg/mL; Result (MIC value) ([6]; ID and AST report (Table 11)): 0.5 µg/mL
C[C@@H](O)[C@H]1C(=O)N2C(C(=O)O)=C(S[C@@H]3CN[C@H](C(=O)N(C)C)C3)[C@H](C)[C@H]12 [Meropenem] | 0.5 µg/mL | 0.5 µg/mL | 0.25-1 | 0.25-1 | 0.25-1 | – | –
C[C@H]1[C@H](NC(=O)/C(=N\OC(C)(C)C(=O)O)c2csc(N)n2)C(=O)N1S(=O)(=O)O [Aztreonam] | 4 µg/mL | 4 µg/mL | 2-8 | 2-8 | 2-8 | – | –
CCO/N=C(\C(=O)N[C@@H]1C(=O)N2C(C(=O)[O-])=C(Sc3nc(-c4cc[n+](C)cc4)cs3)CS[C@H]12)c1nsc(N)n1 [Ceftaroline] | – | – | – | – | – | 1 µg/mL | Result (MIC value) ([3]; ID and AST report (Table 11)): 1 µg/mL
NC[C@H]1O[C@H](O[C@H]2[C@H](O)[C@@H](O[C@H]3O[C@H](CO)[C@@H](O)[C@H](N)[C@H]3O)[C@H](N)C[C@@H]2N)[C@H](N)C[C@@H]1O [Tobramycin] | 0.5 µg/mL | 0.5 µg/mL | 0.25-1 | 0.25-1 | 0.25-1 | – | –
CO/N=C(\C(=O)N[C@@H]1C(=O)N2C(C(=O)[O-])=C(C[N+]3(C)CCCC3)CS[C@H]12)c1csc(N)n1 [Cefepime] | 2 µg/mL | 2 µg/mL | 0.5-4 | – | – | – | Expected (MIC acceptance range) ([2]; AST only report (Table 10)): 0.5-4^; Expected (MIC acceptance range) ([2]; ID and AST report (Table 11)): 0.5-4^
O=C(O)c1cn(C2CC2)c2cc(N3CCNCC3)c(F)cc2c1=O [Ciprofloxacin] | 0.5 µg/mL | 0.5 µg/mL | – | 0.25-1 | 0.25-1 | – | –
NCC[C@H](O)C(=O)N[C@@H]1C[C@H](N)[C@@H](O[C@H]2O[C@H](CN)[C@@H](O)[C@H](O)[C@H]2O)[C@H](O)[C@H]1O[C@H]1O[C@H](CO)[C@@H](O)[C@H](N)[C@H]1O [Amikacin] | 2 µg/mL | 2 µg/mL | 1-4 | 1-4 | 1-4 | – | –
CC(=O)NC[C@H]1CN(c2ccc(N3CCOCC3)c(F)c2)C(=O)O1 [Linezolid] | – | – | – | – | – | 2 µg/mL | Organism QC Range (MIC) ([4]; in µg/mL (unit assumed)): 1-4; Expected (MIC acceptance range) [4, 7]: 1-4; Expected (MIC acceptance range) [4, 8]: 1-4; Result (MIC value) ([3]; ID and AST report (Table 11)): 2 µg/mL

From patent publication US10253355B2, “Instrument and system for rapid microorganism identification and antimicrobial agent susceptibility testing” (Accelerate Diagnostics, Inc., priority 2015, dated 2019)
